In patent US20260132152A1, “SOLID FORMS OF AN ORALLY-DELIVERED BETA-LACTAMASE INHIBITOR AND USES THEREOF” (Venatorx Pharmaceuticals, Inc., priority 2019, published 2026):
In brackets after ≈: the same amount, converted by molar mass. Where two headings read alike, the source gives them in different places.

Columns and labels:
Type in all cases: physicochemical
[1] = Mass spectrometric analysis of conversion of the ethanolate to Compound 1 in water; settings: in the presence of water, high-resolution MS
Method: High resolution mass spectra from 50 to 3000 Da were collected with a Bruker Maxis —Plus QTOF mass spectrometer using an electrospray ionization source. The instrument was controlled and data analyzed using Bruker Compass v.4.4 software. The mass spectrometer was calibrated immediately prior to analyses and was operated in positive ionization mode using an Electrospray Ionization (ESI) source. Samples were prepared by dilution in absolute ethanol (without denaturants) or HPLC grade water prior to direct infusion into the ion source.
Mass spectrometric (MS) analyses were performed to confirm the structure of Compound 1-ethanolate Form A, and evaluate the ability of EtOH to dissociate from Compound 1-ethanolate in water. Compound 1-ethanolate Form A, and an amorphous preparation of ((2-ethylbutanoyl)oxy)methyl (R)-2-hydroxy-3-propionamido-3,4-dihydro-2H-benzo[e][1,2]oxaborinine-8-carboxylate were diluted in absolute EtOH or water and analyzed by high-resolution mass spectrometry. A sample of amorphous ((2-ethylbutanoyl)oxy)methyl (R)-2-hydroxy-3-propionamido-3.4-dihydro-2H-benzo[e]|1.2]oxaborinine-8-carboxylate, dissolved in absolute EtOH, was spiked with water prior to analysis. […] The exact mass observed for sodiated Compound 1-ethanolate was 442.2007 (difference=1.4 ppm vs. theoretical: C21H30BNO7Na: 442.2013 Da). […]

[2] = Separate DVS analysis with stepped increase in relative humidity, 0% RH to 60% RH, 4 h per step, then XRPD; settings: for Mass change in stepped DVS: at humidities higher than 40% RH, loss of ethanol from the boronate ester complex; for Mass increase in stepped DVS: from 0% RH to 40% RH; for Retention of crystal structure (XRPD after stepped DVS): up to 60% r.h.
Method: A second set of DVS experiments were conducted using a stepped method from 0% RH to 60% RH with steps of 10% RH and four hours of equilibration at each humidity value. […] The samples were placed on an aluminum holder and allowed to equilibrate at 0% RH before starting the following predefined humidity program; hold for 4 h at 0% RH, increase humidity by a step of 10% RH, hold for 4 h. repeat the above two steps five times until a value of 60% RH has been reached. The samples were then analyzed for crystallinity using the second set of XRPD conditions.

[3] = Dynamic vapor sorption (DVS) analysis, 5% RH to 95% RH and back to 5% RH at 10% RH increments; settings: for State of sample after DVS analysis: after 5-95-5% RH cycle
Method: Moisture sorption/desorption data were collected on a VTI SGA-100 Vapor Sorption Analyzer. NaCl and PVP were used as calibration standards. Samples were not dried prior to analysis. Sorption and desorption data were collected over a range from 5% to 95% RH at 10% RH increments under a nitrogen purge (RH=relative humidity). The equilibrium criterion used for analysis was less than 0.0100% weight change in 5 minutes with a maximum equilibration time of 3 hours. Data were not corrected for the initial moisture content of the samples.
DVS analysis of Compound 1-ethanolate Form A was conducted from 5% relative humidity (RH) to 95% RH and back to 5% RH at 10% RH increments (FIG. 7). […] A loss of 1.8 wt % was observed between 55% RH and 65% RH possibly due to water displacing ethanol. After 65% RH, the sample gained 3.8 wt % between 65% RH and 95% RH. […] Weight loss (˜7.6 wt %) was observed between 95% RH and 5% RH (i.e., desorption). After DVS analysis, it was noted that the sample had deliquesced.
DVS analysis of Compound 1-ethanolate Form B (with minor Form A) was conducted from 5% RH to 95% RH and back to 5% RH at 10% RH increments (FIG. 12). The DVS isotherm of Form B is qualitatively similar to that of Form A. Form B lost 0.2 wt % upon equilibration at ˜5% RH. […] A weight loss of 1.1% was observed between 45% RH and 55% RH, possibly due to the displacement of the ethanol with water. After 55% RH, the sample gained 3.3 wt % between 55% RH and 95% RH. […] Weight loss (˜5.8 w1%) was observed during desorption from 95% RH to 5% RH.

[4] = Solvent-mediated interconversion slurries with seeds of Form A and Form B; settings: slurries in 3% DCM in heptane and 5% EtOH in heptane, room temperature, ~2 weeks, XRPD
Method: Saturated solutions of Compound 1-ethanolate were prepared in 3% DCM in heptane and 5% EtOH in heptane.
Approximately equal amounts of Form A, and Form B (containing a minor amount of Form A) were added to the filtered saturated solutions, and the suspensions were slurried at room temperature for ˜2 weeks, and the isolated solids were observed by polarized light microscopy (PLM) and analyzed by XRPD.

[5] = Exposure to elevated RH (75%, 85%, 97%) at room temperature
Method: Samples of Compound 1-ethanolate Form A were exposed to elevated RH (75%, 85% and 97%) at room temperature for approximately 3 hours and 24 hours (Table 8).

[6] = Visual solubility estimates by aliquot addition at ambient temperature
Method: Visual solubility estimates for Compound 1-ethanolate Form A were determined in a variety of solvents and solvent mixtures using an aliquot addition method to aid in experimental design.

For CCOB1Oc2c(cccc2C(=O)OCOC(=O)C(CC)CC)C[C@@H]1NC(=O)CC [Compound 1-ethanolate, ((2-ethylbutanoyl)oxy)methyl (R)-2-ethoxy-3-propionamido-3,4-dihydro-2H-benzo[e][1,2]oxaborinine-8-carboxylate], the “Conversion to the free boronic acid (Compound 1)” value [1] was “rapidly converted to the free boronic acid”.
For CCOB1Oc2c(cccc2C(=O)OCOC(=O)C(CC)CC)C[C@@H]1NC(=O)CC [Compound 1-ethanolate Form A, ((2-ethylbutanoyl)oxy)methyl (R)-2-ethoxy-3-propionamido-3,4-dihydro-2H-benzo[e][1,2]oxaborinine-8-carboxylate], the “Mass change in stepped DVS” value [2] was “a decrease in mass was observed”, the “Mass increase in stepped DVS” value [2] was 0.3 wt, -% and the “Retention of crystal structure (XRPD after stepped DVS)” value [2] was “retained its predominant crystal structure for at least four hours”. The “State of sample after DVS analysis” value [3] was “deliquesced”, the “Weight loss in DVS (desorption)” value ([3]; between 95% RH and 5% RH) was about 7.6 wt % and the Weight % chg ([3]; desorption, elapsed 731.2 min, sample RH 85.19%, 25.19 °C) was 0.633%. The Weight % chg ([3]; desorption, elapsed 918.9 min, sample RH 74.98%, 25.19 °C) was −0.694%, the Weight % chg ([3]; desorption, elapsed 1106.5 min, sample RH 65.14%, 25.19 °C) was −1.716% and the Weight % chg ([3]; desorption, elapsed 1296.4 min, sample RH 54.99%, 25.19 °C) was −2.592%. It also gave a Weight % chg ([3]; desorption, elapsed 1483.9 min, sample RH 45.11%, 25.19 °C) of −3.308%, a Weight % chg ([3]; desorption, elapsed 1671.4 min, sample RH 35.03%, 25.19 °C) of −3.916% and a Weight % chg ([3]; desorption, elapsed 1859.0 min, sample RH 25.06%, 25.19 °C) of −4.432%. For the same compound, the Weight % chg ([3]; desorption, elapsed 2044.7 min, sample RH 14.87%, 25.19 °C) was −4.883%, the Weight % chg ([3]; desorption, elapsed 2228.6 min, sample RH 5.67%, 25.19 °C) was −5.275% and the Hygroscopicity ([3]; from 5-55% RH) was “non-hygroscopic”. For the same compound, the “Weight gain in DVS” value ([3]; sorption, between 5% RH and 55% RH) was about 0.3 wt %, the “Weight loss in DVS” value ([3]; sorption, between 55% RH and 65% RH, possibly water displacing ethanol) was 1.8 wt % and the “Weight gain in DVS” value ([3]; sorption, between 65% RH and 95% RH) was 3.8 wt %. For the same compound, the Weight % chg ([3]; sorption, elapsed 21.1 min, sample RH 5.15%, 25.19 °C) was −0.043%, the Weight % chg ([3]; sorption, elapsed 39.7 min, sample RH 14.86%, 25.19 °C) was −0.003% and the Weight % chg ([3]; sorption, elapsed 51.8 min, sample RH 24.90%, 25.20 °C) was 0.051%. It also gave a Weight % chg ([3]; sorption, elapsed 64.8 min, sample RH 34.83%, 25.19 °C) of 0.120%, a Weight % chg ([3]; sorption, elapsed 78.3 min, sample RH 44.87%, 25.19 °C) of 0.214% and a Weight % chg ([3]; sorption, elapsed 91.2 min, sample RH 54.86%, 25.18 °C) of 0.316%. It also gave a Weight % chg ([3]; sorption, elapsed 281.1 min, sample RH 65.03%, 25.18 °C) of −1.494%, a Weight % chg ([3]; sorption, elapsed 294.7 min, sample RH 74.65%, 25.20 °C) of −1.170% and a Weight % chg ([3]; sorption, elapsed 356.0 min, sample RH 84.85%, 25.19 °C) of 0.451%. The Weight % chg ([3]; sorption, elapsed 543.7 min, sample RH 94.83%, 25.19 °C) was 2.311%, the Weight % chg ([3]; start, elapsed 0.1 min, sample RH 0.99%, 25.18 °C) was 0.000% and the Thermodynamically stable polymorph [4] was “the stable form at room temperature”. For the same compound, the Thermodynamically stable polymorph ([4]; listed as Polymorph form A) was “thermodynamically stable”, the “Observation on exposure to elevated RH” value ([5]; 75% RH, after 3 hours) was “no deliquescence” and the “Observation on exposure to elevated RH” value ([5]; 75% RH, after 24 hours) was “began deliquescing”. For the same compound, the “Observation on exposure to elevated RH” value ([5]; 85% RH, after 3 hours) was “appeared wet with solids present”, the “Observation on exposure to elevated RH” value ([5]; 85% RH, after 24 hours) was “deliquesced” and the “Observation on exposure to elevated RH” value ([5]; 97% RH, after 3 hours) was “deliquescence was observed”. The “Observation on exposure to elevated RH” value ([5]; 97% RH, after 24 hours) was “deliquesced”, the solubility ([6]; Cyclohexane) was under 1 mg/mL and the solubility ([6]; Heptane) was under 1 mg/mL. It also gave a solubility ([6]; organic solvent or mixture, thermodynamic from solid, ACN, read-out: Solubility) of over 66 mg/mL, a solubility ([6]; organic solvent or mixture, thermodynamic from solid, Acetone, read-out: Solubility) of 34 mg/mL (≈ 81.1 mM) and a solubility ([6]; organic solvent or mixture, thermodynamic from solid, Anisole, read-out: Solubility) of 35 mg/mL (≈ 83.5 mM). It also gave a solubility ([6]; organic solvent or mixture, thermodynamic from solid, Chloroform, read-out: Solubility) of 36 mg/mL (≈ 85.9 mM), a solubility ([6]; organic solvent or mixture, thermodynamic from solid, Cyclohexane, read-out: Solubility) of under 1 mg/mL and a solubility ([6]; organic solvent or mixture, thermodynamic from solid, Cyclohexane:EtOAc 3:1 by volume, read-out: Solubility) of 4 mg/mL (≈ 9.54 mM). It also gave a solubility ([6]; organic solvent or mixture, thermodynamic from solid, Cyclohexane:EtOH 90:10 by volume, read-out: Solubility) of 17 mg/mL (≈ 40.5 mM), a solubility ([6]; organic solvent or mixture, thermodynamic from solid, DCM, read-out: Solubility) of 34 mg/mL (≈ 81.1 mM) and a solubility ([6]; organic solvent or mixture, thermodynamic from solid, DMF, read-out: Solubility) of over 63 mg/mL. The solubility ([6]; organic solvent or mixture, thermodynamic from solid, DMSO, read-out: Solubility) was over 71 mg/mL, the solubility ([6]; organic solvent or mixture, thermodynamic from solid, Diethyl Ether, read-out: Solubility) was 9 mg/mL (≈ 21.5 mM) and the solubility ([6]; organic solvent or mixture, thermodynamic from solid, EtOAc, read-out: Solubility) was over 68 mg/mL. It also gave a solubility ([6]; organic solvent or mixture, thermodynamic from solid, EtOH, read-out: Solubility) of over 68 mg/mL, a solubility ([6]; organic solvent or mixture, thermodynamic from solid, Heptane, read-out: Solubility) of under 1 mg/mL and a solubility ([6]; organic solvent or mixture, thermodynamic from solid, Heptane:MEK 2:1 by volume, read-out: Solubility) of 22 mg/mL (≈ 52.5 mM). It also gave a solubility ([6]; organic solvent or mixture, thermodynamic from solid, IPA, read-out: Solubility) of 34 mg/mL (≈ 81.1 mM), a solubility ([6]; organic solvent or mixture, thermodynamic from solid, IPOAc, read-out: Solubility) of over 66 mg/mL and a solubility ([6]; organic solvent or mixture, thermodynamic from solid, MEK, read-out: Solubility) of 37 mg/mL (≈ 88.2 mM). The solubility ([6]; organic solvent or mixture, thermodynamic from solid, MTBE, read-out: Solubility) was 22 mg/mL (≈ 52.5 mM), the solubility ([6]; organic solvent or mixture, thermodynamic from solid, Nitromethane, read-out: Solubility) was over 68 mg/mL and the solubility ([6]; organic solvent or mixture, thermodynamic from solid, TFE, read-out: Solubility) was over 66 mg/mL. For the same compound, the solubility ([6]; organic solvent or mixture, thermodynamic from solid, THF, read-out: Solubility) was over 64 mg/mL, the solubility ([6]; organic solvent or mixture, thermodynamic from solid, Toluene, read-out: Solubility) was 33 mg/mL (≈ 78.7 mM) and the solubility ([6]; organic solvent or mixture, thermodynamic from solid, Xylene, read-out: Solubility) was 17 mg/mL (≈ 40.5 mM).
For CCOB1Oc2c(cccc2C(=O)OCOC(=O)C(CC)CC)C[C@@H]1NC(=O)CC [Compound 1-ethanolate Form B, ((2-ethylbutanoyl)oxy)methyl (R)-2-ethoxy-3-propionamido-3,4-dihydro-2H-benzo[e][1,2]oxaborinine-8-carboxylate], the “Mass change in stepped DVS” value [2] was “a decrease in mass was observed”, the “Mass increase in stepped DVS” value [2] was 0.4 wt, -% and the “Retention of crystal structure (XRPD after stepped DVS)” value [2] was “retained its predominant crystal structure for at least four hours”. For the same compound, the “State of sample after DVS analysis” value [3] was “appeared to have deliquesced”, the “Weight loss in DVS (desorption)” value ([3]; desorption from 95% RH to 5% RH) was about 5.8 w1% and the “Weight loss upon equilibration” value ([3]; equilibration at ~5% RH) was 0.2 wt %. The “Weight gain in DVS” value ([3]; sorption, between 5% RH and 45% RH) was about 0.5 wt %, the “Weight loss in DVS” value ([3]; sorption, between 45% RH and 55% RH, possibly displacement of ethanol with water) was 1.1% and the “Weight gain in DVS” value ([3]; sorption, between 55% RH and 95% RH) was 3.3 wt %.
